Laboratory results taken from patent US20240310368A1, “DETECTION KIT FOR CATECHOLAMINES AND METABOLITES THEREOF IN PLASMA/URINE AND DETECTION METHOD THEREOF” (Calibra Scientific, Inc., priority 2023, published 2024).

Assay: Acceleration test of plasma samples with stabilizers (30° C. for 1.5 days, against control plasma stored at −95° C. to −65° C.), LC-MS/MS Area/IS Area
Experimental: Samples were collected in EDTA-anticoagulant blood collection tubes and then rapidly subjected to […] centrifugation at 2-8° C. to separate plasma. 0.95 mL of the plasma was transferred into centrifuge tubes. After 50 μL of the stabilizer was added for uniform mixing, the plasma samples were stored by refrigeration or freezing.
• (1) 500 μL of plasma/urine samples to be tested were taken, and 50 μL of the internal standard solution and 500 μL of the buffer solution were sequentially added for vertex mixing to obtain diluted samples. • (2) The magnetic medium composite material suspension was subjected to full vortex treatment to reach a suspension state, and then subsequent operation was performed. • (3) Different reagents were added into wells of a preprocessing plate according to the follow operation: adding 200 μL of the magnetic medium composite material suspension in column 1, adding 500 μL of the balance solution in column 2, adding 850 μL of the diluted samples in column 3, adding 500 μL of the balance solution in column 4, adding 200 μL of a rinsing solution in column 5, and adding 100 μL of the elution solution in column 6. • (4) An extraction operation procedure was carried out, as shown in Table 5.
Each group of the plasma samples were stored at 30° C. for 1.5 days, and plasma without addition of any compounds stored at −95° C. to −65° C. was used as a control. […] The stabilizing effect of the single-component stabilizers on the plasma samples was investigated.
The stabilizers were mixed with plasma (the volume ratio of the stabilizers to plasma samples was 1:19), and high concentration plasma samples and low concentration plasma samples were prepared by the method provided in Example 1.
With plasma stored at −95° C. to −65° C. as a control, the above plasma samples were separately stored at 30° C. for 1.5 days to investigate the stability. […]

[1] = plasma at a high concentration level, plasma containing 50 μg/mL of the component, control plasma 0.624
[2] = plasma at a high concentration level, plasma containing 50 μg/mL of the component, control plasma 1.522
[3] = plasma at a high concentration level, plasma containing 50 μg/mL of the component, control plasma 2.27
[4] = plasma at a high concentration level, plasma containing 200 μg/mL of the component, control plasma 0.624
[5] = plasma at a high concentration level, plasma containing 200 μg/mL of the component, control plasma 1.522
[6] = plasma at a high concentration level, plasma containing 200 μg/mL of the component, control plasma 2.27
[7] = plasma at a low concentration level, plasma containing 50 μg/mL of the component, control plasma 0.079
[8] = plasma at a low concentration level, plasma containing 50 μg/mL of the component, control plasma 0.219
[9] = plasma at a low concentration level, plasma containing 50 μg/mL of the component, control plasma 0.233
[10] = plasma at a low concentration level, plasma containing 200 μg/mL of the component, control plasma 0.079
[11] = plasma at a low concentration level, plasma containing 200 μg/mL of the component, control plasma 0.219
[12] = plasma at a low concentration level, plasma containing 200 μg/mL of the component, control plasma 0.233

O=C(O)CC(O)(CC(=O)O)C(=O)O [citric acid]
0: Ratio (Area/IS Area) E (plasma at a high concentration level, plasma containing 500 μg/mL of the component, control plasma 0.624) | Ratio (Area/IS Area) NE (plasma at a high concentration level, plasma containing 500 μg/mL of the component, control plasma 1.522) | Ratio (Area/IS Area) DA (plasma at a high concentration level, plasma containing 500 μg/mL of the component, control plasma 2.27) | Ratio (Area/IS Area) E (plasma at a high concentration level, plasma containing 2,000 μg/mL of the component, control plasma 0.624) | Ratio (Area/IS Area) NE (plasma at a high concentration level, plasma containing 2,000 μg/mL of the component, control plasma 1.522) | Ratio (Area/IS Area) DA (plasma at a high concentration level, plasma containing 2,000 μg/mL of the component, control plasma 2.27) | Ratio (Area/IS Area) E (plasma at a low concentration level, plasma containing 500 μg/mL of the component, control plasma 0.079) | Ratio (Area/IS Area) NE (plasma at a low concentration level, plasma containing 500 μg/mL of the component, control plasma 0.219) | Ratio (Area/IS Area) DA (plasma at a low concentration level, plasma containing 500 μg/mL of the component, control plasma 0.233) | Ratio (Area/IS Area) E (plasma at a low concentration level, plasma containing 2,000 μg/mL of the component, control plasma 0.079) | Ratio (Area/IS Area) NE (plasma at a low concentration level, plasma containing 2,000 μg/mL of the component, control plasma 0.219) | Ratio (Area/IS Area) DA (plasma at a low concentration level, plasma containing 2,000 μg/mL of the component, control plasma 0.233)

O=C(O)CN(CCN(CC(=O)O)CC(=O)O)CC(=O)O.[Na].[Na] [disodium EDTA, disodium ethylenediaminetetraacetic acid]
no obvious stabilizing effect: stabilizing effect on catecholamines in plasma (single components as stabilizers)
0: Ratio (Area/IS Area) E [1] | Ratio (Area/IS Area) NE [2] | Ratio (Area/IS Area) DA [3] | Ratio (Area/IS Area) E [4] | Ratio (Area/IS Area) NE [5] | Ratio (Area/IS Area) DA [6] | Ratio (Area/IS Area) E [7] | Ratio (Area/IS Area) NE [8] | Ratio (Area/IS Area) DA [9] | Ratio (Area/IS Area) E [10] | Ratio (Area/IS Area) NE [11] | Ratio (Area/IS Area) DA [12]

O=P(O)(O)O [phosphoric acid]
0: Ratio (Area/IS Area) E (plasma at a high concentration level, plasma containing 0.5% of the acid, control plasma 0.624) | Ratio (Area/IS Area) NE (plasma at a high concentration level, plasma containing 0.5% of the acid, control plasma 1.522) | Ratio (Area/IS Area) DA (plasma at a high concentration level, plasma containing 0.5% of the acid, control plasma 2.27) | Ratio (Area/IS Area) E (plasma at a high concentration level, plasma containing 2.0% of the acid, control plasma 0.624) | Ratio (Area/IS Area) NE (plasma at a high concentration level, plasma containing 2.0% of the acid, control plasma 1.522) | Ratio (Area/IS Area) DA (plasma at a high concentration level, plasma containing 2.0% of the acid, control plasma 2.27) | Ratio (Area/IS Area) E (plasma at a low concentration level, plasma containing 0.5% of the acid, control plasma 0.079) | Ratio (Area/IS Area) NE (plasma at a low concentration level, plasma containing 0.5% of the acid, control plasma 0.219) | Ratio (Area/IS Area) DA (plasma at a low concentration level, plasma containing 0.5% of the acid, control plasma 0.233) | Ratio (Area/IS Area) E (plasma at a low concentration level, plasma containing 2.0% of the acid, control plasma 0.079) | Ratio (Area/IS Area) NE (plasma at a low concentration level, plasma containing 2.0% of the acid, control plasma 0.219) | Ratio (Area/IS Area) DA (plasma at a low concentration level, plasma containing 2.0% of the acid, control plasma 0.233)

O=S([O-])S(=O)(=O)[O-].[Na+].[Na+] [sodium pyrosulfite]
0: Ratio (Area/IS Area) E [1] | Ratio (Area/IS Area) NE [2] | Ratio (Area/IS Area) DA [3] | Ratio (Area/IS Area) E [4] | Ratio (Area/IS Area) NE [5] | Ratio (Area/IS Area) DA [6] | Ratio (Area/IS Area) E [7] | Ratio (Area/IS Area) NE [8] | Ratio (Area/IS Area) DA [9] | Ratio (Area/IS Area) E [10] | Ratio (Area/IS Area) NE [11] | Ratio (Area/IS Area) DA [12]
